According to publication PMC6843404, “Conferring the Metabolic Self-Sufficiency of the CAM Plasmid of Pseudomonas putida ATCC 17453: The Key Role of Putidaredoxin Reductase” (Microorganisms, 2019):

Key:
PdR = target: T1, PdR (Pseudomonas putida, UniProt P16640); assay: spectrophotometric NADH oxidation at […] nm; format: biochemical; settings: anaerobic
T1 construct: gene camA
T1 sequence (P16640 1-422): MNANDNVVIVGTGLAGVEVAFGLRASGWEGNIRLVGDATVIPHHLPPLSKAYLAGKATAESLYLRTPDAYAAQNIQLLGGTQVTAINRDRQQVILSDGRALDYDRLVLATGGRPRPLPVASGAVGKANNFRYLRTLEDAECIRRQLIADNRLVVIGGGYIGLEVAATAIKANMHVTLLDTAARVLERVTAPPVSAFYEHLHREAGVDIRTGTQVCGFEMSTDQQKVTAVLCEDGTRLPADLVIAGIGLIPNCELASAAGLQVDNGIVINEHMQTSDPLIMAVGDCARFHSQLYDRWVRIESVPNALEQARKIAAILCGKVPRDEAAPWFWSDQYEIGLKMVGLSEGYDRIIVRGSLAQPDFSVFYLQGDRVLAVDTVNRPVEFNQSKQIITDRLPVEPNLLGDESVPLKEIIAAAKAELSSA

Fred = target: T2, Fred (Pseudomonas putida, UniProt M4YFG7); assay: spectrophotometric NADH oxidation at […] nm; format: biochemical; settings: anaerobic
T2 construct: native, highly purified, chromosome-coded, 36 kDa homodimer
T2 sequence (M4YFG7 2-170): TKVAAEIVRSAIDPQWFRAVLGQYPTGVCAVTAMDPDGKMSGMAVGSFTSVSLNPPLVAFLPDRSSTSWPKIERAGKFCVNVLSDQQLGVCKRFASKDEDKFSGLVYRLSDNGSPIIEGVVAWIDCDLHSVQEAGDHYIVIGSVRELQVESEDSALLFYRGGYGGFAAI

Structure (SMILES)	spectrophotometric NADH oxidation at 340 nm (PdR; FMN as co-substrate)	spectrophotometric NADH oxidation at 340 nm (Fred; FMN as co-substrate)	spectrophotometric NADH oxidation at 340 nm (PdR; NADH as co-substrate)	spectrophotometric NADH oxidation at 340 nm (Fred; NADH as co-substrate)
NC(=O)C1=CN([C@@H]2O[C@H](COP(=O)(O)OP(=O)(O)OC[C@H]3O[C@@H](n4cnc5c(N)ncnc54)[C@H](O)[C@@H]3O)[C@@H](O)[C@H]2O)C=CC1 [NADH]	measuring the initial rate of enzyme-catalysed reduction of FMN by NADH	measuring the initial rate of enzyme-catalysed reduction of FMN by NADH	–	–
Cc1cc2nc3c(=O)[nH]c(=O)nc-3n(C[C@H](O)[C@H](O)[C@H](O)COP(=O)(O)O)c2cc1C [FMN]	–	–	measuring the initial rate of enzyme-catalysed reduction of FMN by NADH	measuring the initial rate of enzyme-catalysed reduction of FMN by NADH
